In US11013687B1, “Preventive and therapeutic treatment for COVID 19 and any other disease caused by SARS CoV 2” (priority 2020, dated 2021):

How the values were obtained:
SARS-CoV-2 = assay type: cell-based
[1] = used in much larger amounts as food additive and sweetener than for nasal delivery; cited from earlier work
[2] = cited from earlier work

Row | Compound | capable of inhibiting SARS CoV 2 in vitro (in words) (SARS-CoV-2; xylitol alone) | safety for humans [1] | time iota Carrageenan stays in the nasal mucosa ([2]; clinical trials with a formulation containing xylometazoline and iota Carrageenan) | residence time ([2]; nasal, estimation basis for dosing each 4 hours) | Log reduction of TCID50/mL after 48 hs. (mean of three replicates) (SARS-CoV-2; 6 μg/mL iota carrageenan, Vero E6, treated pre- and post-infection, 48 h, vs virus only, LOD in next column = titre at limit of detection) | concentration capable of inhibiting SARS CoV 2 in vitro (SARS-CoV-2; concentration of iota Carrageenan, alone or in combination with xylitol)
1 | OC[C@@H](O)[C@H](O)[C@@H](O)CO [xylitol, Xylitol] | capable of inhibiting SARS CoV 2 in vitro | safe for humans |  |  |  | 
2 | iota Carrageenan |  | safe for humans | about 4 hrs | approximately 4 hour | significantly reducing viral titers | not less than 6 μg/mL
